Source: paper PMC11357100 (2024)

Assays:
Experiment in all cases: UV melting at 295 nm
[1] = test system: RET (DNA, G4) GGGGCGGGGCGGGGCGGGGT; details: 10 mM KCl, 90 mM LiCl; 10 mM Tris-HCl pH 7.2; 2 µM DNA, 3 equiv. ligand; Tm 75.30 ± 0.80 to 76.4 ± 1.2
[2] = test system: c-KIT1 (DNA, G4) AGGGAGGGCGCTGGGAGGAGGG; details: 10 mM KCl, 90 mM LiCl; 10 mM Tris-HCl pH 7.2; 2 µM DNA, 3 equiv. ligand; Tm 52.9 ± 1.0 to 54.40 ± 0.60
[3] = test system: c-MYC (DNA, G4) TGAGGGTGGGTAGGGTGGGTAA; details: 10 mM KCl, 90 mM LiCl; 10 mM Tris-HCl pH 7.2; 2 µM DNA, 3 equiv. ligand; Tm 79.10 ± 0.10 to 80.6 ± 1.7
[4] = test system: catG4 (DNA, G4) TGGGTAGGGCGGGTTGGGAAA; details: 10 mM KCl, 90 mM LiCl; 10 mM Tris-HCl pH 7.2; 2 µM DNA, 3 equiv. ligand; Tm 63.30 ± 0.10 to 62.80 ± 0.30

Structure (SMILES): COc1nc2c(N)ncnc2[n+]2ccccc12
- ΔTm [1]: 1.1 °C
- ΔTm [2]: 1.5 °C
- ΔTm [3]: 1.5 °C
- ΔTm [4]: -0.5 °C
